{"source": "patent US8618079B2", "about": "“Imidazo[1,2-a] pyridinyl bisphosphonates” (Isis Innovation Limited, priority 2008, dated 2013)", "key": {"[1]": {"system": "Sprague Dawley rats", "assay": "Schenk model, in vivo bone resorption inhibition (tibial BMD)", "details": "rat, subcutaneous once daily for 7 days; dose increasing proximal tibial BMD 20% over control", "experimental": "The compounds were evaluated for in vivo bone resorption inhibition and mineralization inhibition in an animal model system known in the field of bone metabolism as the Schenk Model. The general principles of this model system are disclosed in Shinoda et al., Calcif. Tissue Int., 35: 87-99 (1983); and in Schenk et al., Calcif. Tissue Res. 11: 196-214 (1973), the disclosures of which are incorporated herein by reference in their entireties.\nAnimals: Weanling male Sprague Dawley rats (Charles River Breeding Laboratories, Raleigh, N.C.) approximately 6 weeks old with weights ranging between 120 and 150 grams were placed into groups based on body weight, with 6 animals per group. All groups received treatment by subcutaneous injection (SQ) once daily (QD) for 7 days.\nDose Solutions and Dosing Procedure: On day 0, all animals received an injection of 3% xylenol orange (90 mg/kg; Sigma) in normal saline, pH adjusted to 7.4. On day 4 all animals were given a subcutaneous injection of 1% Calcein (10 mg/kg, Sigma) in 0.9% NaCl solution to label the skeleton. The first treatment was on day 0, and the last treatment on day 6, with animals euthanized on day 7. Concentrations were based on dosing 0.2 ml/100 g body weight. Compounds were administered at doses ranging from 0.0001 to 1 mg P/kg/day for 7 days at semi-log doses. The dose range was based on the IC 50 in the FPPS inhibition assay, and on the affinity to hydroxyapatite (HAP Affinity). Three to seven doses were chosen per test compound. Adjustments in dosage based on changes in body weight were made on a daily basis.\nNecropsy, Tissue Processing and Histomorphometry: On day 7 after the start of dosing, all animals were euthanized via exsanguination under gas anesthesia and/or CO2. The right tibia and femur were dissected free and placed in 70% ethyl alcohol. The proximal metaphysis of the right tibia was analyzed using dual energy x-ray analysis (DXA). This provides information on changes in both cortical and cancellous bone density. The primary end-point for this study was bone mineral density in the tibia measured using a Hologics QDR-4500 densitometer (Hologics, Inc). Statistical evaluation of data was made using parametric and non-parametric analysis of variance and Wilcoxon's rank sum test to determine a statistically significant effect compared to control animals.\nThe Schenk model provided data for in vivo bone resorption inhibition by the compounds, see Table 3. Bone mineral density (BMD) was assessed with a Hologics 4500A on a region of the proximal tibial metaphysic. Efficacy of each bisphosphonate was expressed as the percent change from the vehicle control group. The dose that increased bone mineral density (BMD) 20% greater than control was determined via a logistic dose response relationship (SAS), which estimates an efficacy value using all animals in the study, and identified as D20 for comparison of bisphosphonates across studies. (Lundy et al., J. Bone Min. Res. 22(Suppl 1): S443, (2007)). Data from compounds run in multiple studies was averaged."}, "[2]": {"assay": "Hydroxyapatite (HAP) affinity, chromatographic retention on HAP column", "assay_type": "physicochemical", "details": "phosphate buffer gradient 1 mM to 1000 mM, pH 6.8, longer retention = higher mineral affinity"}, "[3]": {"target": "T1, human farnesyl pyrophosphate synthase (FPPS) (Homo sapiens, UniProt P14324)", "T1 construct": "made in house", "T1 sequence (P14324 67-419 limits assumed)": "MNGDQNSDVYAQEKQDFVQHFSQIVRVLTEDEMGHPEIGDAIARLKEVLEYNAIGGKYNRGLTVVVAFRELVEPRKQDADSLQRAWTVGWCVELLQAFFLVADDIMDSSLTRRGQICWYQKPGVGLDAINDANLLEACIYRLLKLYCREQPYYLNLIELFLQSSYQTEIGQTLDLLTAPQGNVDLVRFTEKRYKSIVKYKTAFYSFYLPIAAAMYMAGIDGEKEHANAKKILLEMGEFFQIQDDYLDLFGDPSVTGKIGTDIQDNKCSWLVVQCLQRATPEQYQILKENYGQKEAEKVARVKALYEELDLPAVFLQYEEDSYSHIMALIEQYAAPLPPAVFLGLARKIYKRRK", "assay": "FPPS inhibition", "assay_type": "biochemical", "details": "recombinant human FPPS; for IC50: after pre-incubation; for Ki: read-out: FPPS inhibition Ki (final inhibition constant)"}, "[4]": {"system": "collagen induced arthritis (CIA) rat", "assay": "Collagen induced arthritis (CIA) rat model, bone resorption scores", "assay_type": "in vivo", "experimental": "The collagen induced arthritis (CIA) rat model is an in vivo model that provides for an evaluation of the inhibition of inflammation as well as inhibition of bone erosion. The study was performed according to the method of Bendele et al., Arthritis & Rheumatism, 43: 2648-2659 (2000), incorporated herein by reference in its entirety, with the exception that male animals were used instead of female animals.\nArthritis was induced in rats by injecting collagen on days 0 and 6. The bisphosphonate compound of Example 4 (1-fluoro-2-(imidazo-[1,2-α]pyridin-3-yl)-ethyl-bisphosphonic acid) was administered at four different dosages (1.57 μg/kg, 15.69 μg/kg, 156.9 μg/kg, and 523.0 μg/kg; n=10/group) by subcutaneous injection on day 0, and compared to vehicle control (n=10). An additional group was administered 10 mg/kg Enbrel® (n=10) on days 9, 12, and 15 as a positive control. The study was stopped on day 17 and the animals were evaluated for ankle thickness and paw weight, indices of inflammation. The ankle and knees were removed as one piece, placed in formalin, decalcified and processed for histology. Sections were stained with toluidine blue and graded for inflammation, pannus and cartilage degradation on a score of 0 (normal) to 5 (severe). Bone erosion was also scored in the ankle and knee on a 0-5 score."}}}
{"compound": "NCCCC(O)(P(=O)(O)O)P(=O)(O)O", "note": "[Alendronate, reference compound]", "values": [{"measurement": "Schenk D20 (mg P/kg) 20% > BMD than control", "setting": "[1]", "result": 0.0015, "unit": "mg P/kg"}]}
{"compound": "O=P(O)(O)C(O)(Cc1cnc2ccccn12)P(=O)(O)O", "note": "[Minodronate, reference compound]", "values": [{"measurement": "HAP Affinity Retention time", "setting": "[2]", "result": 10.33, "unit": "min"}, {"measurement": "Schenk D20 (mg P/kg) 20% > BMD than control", "setting": "[1]", "result": 0.0001, "unit": "mg P/kg"}]}
{"compound": "O=P(O)(O)C(O)(Cc1cccnc1)P(=O)(O)O", "note": "[Risedronate, reference compound]", "values": [{"measurement": "HAP Affinity Retention time", "setting": "[2]", "result": 9.97, "unit": "min"}, {"measurement": "Schenk D20 (mg P/kg) 20% > BMD than control", "setting": "[1]", "result": 0.00045, "unit": "mg P/kg"}]}
{"compound": "O=P(O)(O)C(O)(Cn1ccnc1)P(=O)(O)O", "note": "[Zoledronate, reference compound]", "values": [{"measurement": "HAP Affinity Retention time", "setting": "[2]", "result": 12.53, "unit": "min"}, {"measurement": "Schenk D20 (mg P/kg) 20% > BMD than control", "setting": "[1]", "result": 0.00008, "unit": "mg P/kg"}]}
{"compound": "Cc1ccn2c(CC(F)(P(=O)(O)O)P(=O)(O)O)cnc2c1", "note": "[compound 11, 1-fluoro-2-(7-methyl)-imidazo-[1,2-α]pyridin-3-yl-ethyl-bisphosphonic acid]", "values": [{"measurement": "HAP Affinity Retention time", "setting": "[2]", "result": 6.2, "unit": "min"}, {"measurement": "Schenk D20 (mg P/kg) 20% > BMD than control", "setting": "[1]", "result": 0.002, "unit": "mg P/kg"}, {"measurement": "IC50", "setting": "[3]", "result": 60.3, "unit": "nM"}, {"measurement": "Ki", "setting": "[3]", "result": 9.6, "unit": "nM"}]}
{"compound": "Cc1ccn2c(CC(P(=O)(O)O)P(=O)(O)O)cnc2c1", "note": "[compound 15, 2-(7-methyl)-imidazo-[1,2-α]pyridin-3-yl-ethyl-bisphosphonic acid]", "values": [{"measurement": "HAP Affinity Retention time", "setting": "[2]", "result": 6.6, "unit": "min"}, {"measurement": "Schenk D20 (mg P/kg) 20% > BMD than control", "setting": "[1]", "result": 0.008, "unit": "mg P/kg"}, {"measurement": "IC50", "setting": "[3]", "result": 39.7, "unit": "nM"}, {"measurement": "Ki", "setting": "[3]", "result": 6.1, "unit": "nM"}]}
{"compound": "O=P(O)(O)C(F)(Cc1cnc2ccccn12)P(=O)(O)O", "note": "[compound 23, 1-fluoro-2-(imidazo-[1,2-α]pyridin-3-yl)-ethyl-bisphosphonic acid]", "values": [{"measurement": "HAP Affinity Retention time", "setting": "[2]", "result": 6.17, "unit": "min"}, {"measurement": "Schenk D20 (mg P/kg) 20% > BMD than control", "setting": "[1]", "result": 0.0003, "unit": "mg P/kg"}, {"measurement": "IC50", "setting": "[3]", "result": 2.46, "unit": "nM"}, {"measurement": "Ki", "setting": "[3]", "result": 0.014, "unit": "nM"}, {"measurement": "ankle bone resorption score, dose response", "setting": "[4]; single subcutaneous injection day 0, 1.57-523.0 μg/kg, scored day 17 (FIG. 9)", "result": "dose-dependent decrease in bone resorption"}, {"measurement": "knee bone resorption score, dose response", "setting": "[4]; single subcutaneous injection day 0, 1.57-523.0 μg/kg, scored day 17 (FIG. 10)", "result": "dose dependent decrease in bone resorption"}, {"measurement": "knee bone resorption score, decrease relative to vehicle", "setting": "[4]; three highest dosage levels (15.69 μg/kg, 156.9 μg/kg and 523.0 μg/kg), p=0.05 (FIG. 10)", "result": "statistically different"}, {"measurement": "ankle bone resorption score, decrease relative to vehicle", "setting": "[4]; two highest dosage levels (156.9 μg/kg and 523.0 μg/kg), p=0.05 (FIG. 9)", "result": "statistically different"}]}
{"compound": "O=P(O)(O)C(Cc1cnc2ccc(F)cn12)P(=O)(O)O", "note": "[compound 34, [2-(6-fluoro-imidazo[1,2-α]pyridin-3-yl)-ethyl]-bisphosphonic acid]", "values": [{"measurement": "HAP Affinity Retention time", "setting": "[2]", "result": 6.3, "unit": "min"}, {"measurement": "IC50", "setting": "[3]", "result": 106, "unit": "nM"}, {"measurement": "Ki", "setting": "[3]", "result": 17.5, "unit": "nM"}]}
{"compound": "O=P(O)(O)C(Cc1cnc2c(O)cccn12)P(=O)(O)O", "note": "[compound 40, [2-(8-hydroxy-imidazo[1,2-α]pyridin-3-yl)-1-ethane]-bisphosphonic acid]", "values": [{"measurement": "HAP Affinity Retention time", "setting": "[2]", "result": 5.3, "unit": "min"}, {"measurement": "IC50", "setting": "[3]", "result": 893, "unit": "nM"}, {"measurement": "Ki", "setting": "[3]", "result": 151, "unit": "nM"}]}
{"compound": "CCc1nc2ccccn2c1CC(P(=O)(O)O)P(=O)(O)O", "note": "[compound 75, [(2-ethyl-imidazo[1,2-α]pyridin-3-yl)-methyl]-bisphosphonic acid]", "values": [{"measurement": "HAP Affinity Retention time", "setting": "[2]", "result": 4.83, "unit": "min"}, {"measurement": "IC50", "setting": "[3]", "result": 27, "unit": "nM"}, {"measurement": "Ki", "setting": "[3]", "result": 2.5, "unit": "nM"}]}
{"compound": "O=P(O)(O)C(Cc1cnc2ccccn12)P(=O)(O)O", "note": "[compound 80, 2-(imidazo-[1,2-α]pyridin-3-yl)-ethyl-bisphosphonic acid]", "values": [{"measurement": "HAP Affinity Retention time", "setting": "[2]", "result": 6.6, "unit": "min"}, {"measurement": "Schenk D20 (mg P/kg) 20% > BMD than control", "setting": "[1]", "result": 0.0006, "unit": "mg P/kg"}, {"measurement": "IC50", "setting": "[3]", "result": 2.59, "unit": "nM"}, {"measurement": "Ki", "setting": "[3]", "result": 0.013, "unit": "nM"}]}
{"compound": "Cc1ccc2ncc(CC(P(=O)(O)O)P(=O)(O)O)n2c1", "note": "[compound 81, 2-(6-methylimidazo-[1,2-α]pyridin-3-yl)-ethyl-bisphosphonic acid]", "values": [{"measurement": "HAP Affinity Retention time", "setting": "[2]", "result": 6.6, "unit": "min"}, {"measurement": "IC50", "setting": "[3]", "result": 380, "unit": "nM"}, {"measurement": "Ki", "setting": "[3]", "result": 64, "unit": "nM"}]}
